Results taken from US10295537B2, “Biorecognition elements for rapid detection of biocontamination” (The United States of America, as represented by the …, priority 2017, dated 2019).
Ends that are not written are not given here.

Legend:
[1] = system: P. stutzeri cells; test: Fluorometry of P. stutzeri cells labeled with peptide-QD525 conjugates; type: cell-based; settings: emission peak at 525 nm, 1×10^9 P. stutzeri cells
Description: The emission peak fluorescence at 525 nm of 1×10^9 P. stutzeri cells labeled with peptide-QD525 conjugates was measured in a fluorometer and relative fluorescence units (“RFIU”) were compared (Table 6 and 7, above). Peptides OBP11 and OBP12 targeting OprF, and peptide OPP1 targeting Opr86 presented fluorescence levels that greatly surpassed the other selected peptides for the respective target. OPP1, OBP11, and OBP12 were selected for further characterization and validation.
(§1) Bacterial stocks for experimentation were prepared by harvesting overnight grown bacterial cells by centrifugation at 11000×g for 15 min (at 4° C.), washed once with 1×PBS, pH 7.2, and re-suspended in 1×PBS to a concentration of 1×10^9 cells/mL. Bacterial titers were determined by measuring optical density at 600 nm and confirmed by colony counting on LB agar plates. Cell pellets produced by centrifuging 1 mL of the 1×10^9 cells/mL stock were re-suspended in 38 μL of 1×PBS and 62 μL of 2.4 μM peptide-QD was added to a final concentration of 1.5 μM. Cells were incubated for 30 min at 25° C. Cell pellets were washed three-times with 0.5 mL PBS and re-suspended in 500 μL PBS for fluorescence assays and imaging. Dilutions ranging from 1×10^9 cells to 1×10^4 cells were prepared using standard bacteriological techniques and 0.5 mL samples were used for fluorescence measurements.
(§2) Emission spectra were obtained using Cary Eclipse Fluorimeter with excitation at 330 nm, scan rate of 120 nm/imin, and PMT voltage of 1000V. Spectra were corrected for background and dilution factor when appropriate.

[2] = system: Opr86; test: Solution biopanning against biotinylated Opr86 extracellular loop fragment, three rounds of selection; type: binding, P. aeruginosa; settings: Bushnell-Haas pH 8.5 with 1% Jet-A
Description: Generally, solution-phase biopanning was carried out as described by the manufacturer (New England Biolabs, Ipswich, Mass.) with some modifications, including the changing of pH from 7.0 to 5.5 and 8.5 and adding 1% v/v of Jet A fuel. The first round of selection was carried out by diluting Ph.D.-7 bacteriophage library 100-fold in 0.1% Tris buffer saline plus Tween 20 (0.1% TBST) at the appropriate pH for selection plus fuel. Subsequently, the phage library was incubated with 1 μg of N-terminal biotinylated target protein fragment (OprF1: […] (SEQ. ID No. 1), OprF2: ADIKNLADFMK QYPSTSTT (SEQ. ID No. 2), Opr86: […] STP (SEQ. ID No. 3)) for 1 hr at 25° C. Phage-protein complexes were captured with 50 μL of streptavidin magnetic microbeads, unbound phages were removed, and the pellet sample washed 10-times with 1 mL of 1× Tris buffer saline (“TBS”) plus 0.05% TBST to remove weakly bound phage particles. Bound bacteriophages were eluted from the beads by lowering the pH (0.2 M Glycine-HCl, pH 2.2) while rotating gently for 10 min at 25° C. After neutralization with 1 M Tris-HCl, pH 9.1, eluted phages were amplified by infection of E. coli strain ER 2738 grown in Luria-Bertani (“LB”) broth medium until early-log phase (OD600 0.1-0.5). Titer of the amplified phage (more than 10^10 pfu/mL) was determined by infection into E. coli ER2738 and subsequent growth in selective medium containing X gal/IPTG. Amplified phages from round 1 were pre-cleared with streptavidin-coated magnetic microbeads (50 μL) to further remove non-specific binders and then used as the input phage for round 2 of selection. Enrichment of the bacteriophage pool was achieved by performing […] of selection under the appropriate pH plus jet fuel condition. Genomic DNA from individual clones was sequenced by GenScript (Piscataway, N.J.).
The particular region of the Opr86 extracellular loop of sequence […] (SEQ. ID No. 3) was chemically synthesized with a biotin capture element and used as target epitope for BRE development in solution biopanning in Bushnell-Haas, pH 8.5, supplemented with 1% Jet-A. Following the previously established procedure for OprF, several unique Opr86 peptide BREs (“OPPs”) were identified after three rounds of selection (Table 7, above).

[3] = system: A. venetianus ATCC 31012; test: Detection of bacteria recovered from spiked 1 L Jet A fuel with peptide-QD545 (LOD, fluorescence); type: cell-based; settings: for LOD (CFU): 1.5 μM peptide-QD; for detection possible down to, in some instances: below reproducible LOD
Description: (§3) To test the applicability of the peptide BRE-QD chemistry in the detection of bacteria in fuel and characterize the LOD in such system, bacterial cells from 1 L jet fuel samples spiked with different levels of bacteria were recovered, labeled, and detected.
(§4) One liter Jet A fuel samples were amended with 1 mL of 1×PBS containing either A. venetianus ATCC 31012 or P. stutzeri at the appropriate test concentration was added to 1 L of Jet A fuel. The inoculated jet fuel samples were thoroughly mixed by vortex for 1 min and allowed to stand for 20 min to 30 min. To recover the cells, 1 mL of 1×PBS, named bacterial recovery solution (“BRS”), was added to the jet fuel samples, the samples shaken by hand, allowed stand for 5 min, and, then, 1 mL of the aqueous phase was collected using a long serological pipette. The 1 mL of solution with bacteria was centrifuged for 5 min at 11000×g, and washed three times with 1 mL of 1×PBS. Bacterial pellets were individually labeled using a final concentration 1.5 μM peptide-QD. The LOD was defined as the lowest concentration level that could be determined to be statistically different from QD labeled cells from the results of multiple testers. The actual cell level (colony-forming units, “CFU”) detected was determined by plating a portion of the sample after being subjected to the labeled procedure.
(§5) Cells in the 1 L of fuel were recovered with 1 mL of BRS. Efficient labeling of the bacteria was indicated by high levels of fluorescence detected from the cell wall by fluorescence microscopy (FIG. 13 and Table 10, below). FIG. 14 is a similar image but of fungus (Hormoconis) labeled by peptide-QD605. The LOD was reliably determined from assays performed by multiple testers.

[4] = system: P. stutzeri; test: as above; type: cell-based; settings: for LOD (CFU) / Fluorescence (RFU): 1 L Jet A; for LOD (CFU): 1.5 μM peptide-QD; for detection possible down to, in some instances: below reproducible LOD; for Fluorescence (RFU): at LOD
Description: as §3, §4, §5

[5] = system: Gram negative bacteria (A. venetianus and Pseudomonas spp.); test: Fluorometry of fuel degrading bacteria labeled with peptide-QD545 conjugates (FIG. 11); type: cell-based; settings: 1×10^9 cells, QD545 conjugates, FIG. 11
Description: To characterize the specificity of the peptide BRE-QD545 conjugates for the intended bacterial groups, fluorescence imaging and fluorometric analysis were performed using different Gram negative and Gram positive fuel degrading bacteria. As such, cultures comprising 1×10^9 cells of Gram negative bacteria (P. stutzeri, P. alkaligenes, P. aeruginosa and A. venetianus) and Gram positive bacteria (Arthrobacter sp. and Lynsinibacillus sp.) were labeled with OPP1, OBP11 and OBP12 biofunctionalized QD545 and visualized using fluorescence microscopy (FIGS. 5-10) and the fluorescence quantified using a fluorometer (FIG. 11).
as §1, §2

Question: For “I I T M K R R (IITMKRR; Artificial sequence obtained through biopanning.) [OPP5, Opr86 peptide BRE]”, which “Fluorescence (RFU)” value [1] is on record?
Answer: 4408 ± 225 RFU

Question: And the “% Abundance” value [2]?
Answer: 3%

Question: With “L P S T I H R (LPSTIHR; Artificial sequence obtained through biopanning.) [OPP3, Opr86 peptide BRE]” as the substance, how does the “Fluorescence (RFU)” value [1] read?
Answer: 2251 ± 63 RFU

Question: And the “% Abundance” value [2]?
Answer: 2%

Question: What does the source list for “L R P L M N R (LRPLMNR; Artificial sequence obtained through biopanning.) [OPP4, Opr86 peptide BRE]”?
Answer: Fluorescence (RFU) [1]: 1383 ± 74 RFU; % Abundance [2]: 3%

Question: For “M H N L N L L (MHNLNLL; Artificial sequence obtained through biopanning.) [OPP2, Opr86 peptide BRE]”, which “Fluorescence (RFU)” value [1] is on record?
Answer: 1847 ± 52 RFU

Question: What about the “% Abundance” value [2] of the same substance?
Answer: 2%

Question: For “NMTNPPP (Artificial sequence obtained through biopanning.) [OBP6]”, which “Fluorescence (RFU)” value [1] is on record?
Answer: 2080 ± 280 RFU

Question: Which results are given for “QD545-OBP11: peptide OBP11 conjugated to quantum dot QD545 (PIKTNRK; also: conjugated to quantum dot QD545)”?
Answer: LOD [3]: 5×10^5 CFU/mL of BRS; LOD (CFU) ([3]; 1 L Jet A): 5 × 10^5 CFU; detection possible down to, in some instances [3]: 5×10^4 CFU/mL of BRS; LOD [4]: 5×10^5 CFU/mL of BRS; LOD (CFU) [4]: 5 × 10^5 CFU; detection possible down to, in some instances [4]: 5×10^4 CFU/mL of BRS

Question: For “QD545-OBP12: peptide OBP12 conjugated to quantum dot QD545 (PKRTPRH; also: conjugated to quantum dot QD545)”, which LOD [3] is on record?
Answer: 5×10^5 CFU/mL of BRS

Question: What about the “LOD (CFU)” value ([3]; 1 L Jet A) of the same substance?
Answer: 5 × 10^5 CFU

Question: What about the “detection possible down to, in some instances” value [3] of the same substance?
Answer: 5×10^4 CFU/mL of BRS

Question: And the LOD [4]?
Answer: 5×10^5 CFU/mL of BRS

Question: And the “LOD (CFU)” value [4]?
Answer: 5 × 10^5 CFU

Question: And the “Fluorescence (RFU)” value [4]?
Answer: 12,205 RFU

Question: And the “detection possible down to, in some instances” value [4]?
Answer: 5×10^4 CFU/mL of BRS

Question: “QD545-OPP1: peptide OPP1 conjugated to quantum dot QD545 (PRIRKSH; also: conjugated to quantum dot QD545)” was tested. Which LOD [3] did it give?
Answer: 5×10^4 CFU/mL of BRS

Question: And the “LOD (CFU)” value ([3]; 1 L Jet A)?
Answer: 5 × 10^5 CFU

Question: What about the “Fluorescence (RFU)” value ([3]; 1 L Jet A, at LOD) of the same substance?
Answer: 773 RFU

Question: And the “detection possible down to, in some instances” value [3]?
Answer: 5×10^3 CFU/mL of BRS

Question: And the LOD [4]?
Answer: 5×10^4 CFU/mL of BRS

Question: And the “LOD (CFU)” value [4]?
Answer: 5 × 10^5 CFU

Question: And the “Fluorescence (RFU)” value [4]?
Answer: 820 RFU

Question: What about the “detection possible down to, in some instances” value [4] of the same substance?
Answer: 5×10^3 CFU/mL of BRS

Question: And the “detection of Gram negative bacteria by fluorometer” value [5]?
Answer: high fluorescence levels with all Gram negative bacteria tested

Question: For “QITLRST (Artificial sequence obtained through biopanning.) [OBP7]”, which “Fluorescence (RFU)” value [1] is on record?
Answer: 2625 ± 543 RFU

Question: With “QMLLRLP (Artificial sequence obtained through biopanning.) [OBP9]” as the substance, how does the “Fluorescence (RFU)” value [1] read?
Answer: 3338 ± 590 RFU

Question: “R K K S R I R (RKKSRIR; Artificial sequence obtained through biopanning.) [OPP6, Opr86 peptide BRE]” was tested. Which “Fluorescence (RFU)” value [1] did it give?
Answer: 4126 ± 98 RFU

Question: And the “% Abundance” value [2]?
Answer: 2%

Question: “RRSNSQL (Artificial sequence obtained through biopanning.) [OBP4]” was tested. Which “Fluorescence (RFU)” value [1] did it give?
Answer: 4520 ± 473 RFU
